From patent EP4603105A1, “PHARMACEUTICAL COMPOSITION CONTAINING CYCLIC COMPOUND HAVING SELECTIVE KRAS INHIBITORY EFFECT AGAINST HRAS AND NRAS” (CHUGAI SEIYAKU KABUSHIKI KAISHA, priority 2022, dated 2024)
Where a SMILES comes first, the peptide text is derived from it. Bridges are numbered along the chain shown (N, C = ends). [ ]: non-standard residue; d: D form. The star is where a group is joined. hPhe(3-Cl-4-CF3) = N[C@@H](CCc1ccc(C(F)(F)F)c(Cl)c1)C(=O)O; NPrPhe(4-CF3) = CCCN[C@@H](Cc1ccc(C(F)(F)F)cc1)C(=O)O; NMeGly(cPent) = CN[C@H](C(=O)O)C1CCCC1; Pro(4,4-F2) = O=C(O)[C@@H]1CC(F)(F)CN1; Pro(4,4-Me2) = CC1(C)CN[C@H](C(=O)O)C1; Pro(4S-Me) = C[C@@H]1CN[C@H](C(=O)O)C1; Hyp = O=C(O)[C@@H]1C[C@@H](O)CN1; NMeD = CN[C@@H](CC(=O)O)C(=O)O; NMeL = CN[C@@H](CC(C)C)C(=O)O; Morpholide = C1CN(*)CCO1; NMeA = CN[C@@H](C)C(=O)O; Ac5c = NC1(C(=O)O)CCCC1; Aze = O=C(O)[C@@H]1CCN1; Ac4c = NC1(C(=O)O)CCC1; NEtG = CCNCC(=O)O; Sar = CNCC(=O)O

Columns and labels:
[1] = test system: human lung cancer strain NCI-H441; format: cell-based
Method in brief: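 Readout: […] after the ATP-based reagent. Compound: serial dilutions in dimethyl sulfoxide.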

[2] = biological target: HRAS wild-type protein (Homo sapiens, UniProt P01112); experiment: Binding to HRAS by surface plasmon resonance (SPR), KD and KD ratio to KRAS; conditions: ratio of the KD value with respect to HRAS wild-type protein to the KD value with respect to KRAS
Sequence of HRAS wild-type protein (P01112 whole entry): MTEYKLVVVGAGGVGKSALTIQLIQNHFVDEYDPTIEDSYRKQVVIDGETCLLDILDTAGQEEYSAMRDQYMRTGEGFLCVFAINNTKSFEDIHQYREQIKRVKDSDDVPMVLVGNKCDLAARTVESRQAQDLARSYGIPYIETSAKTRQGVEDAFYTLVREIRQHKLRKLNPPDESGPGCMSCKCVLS
Method in brief: (§1)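 Affinity is measured by surface plasmon resonance at 30°C against captured, GDP-loaded RAS carrying a biotinylated Avi tag. Compounds are titrated by single-cycle kinetics, and KD comes from a 1:1 fit.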

[3] = biological target: GDP-bound NRAS wild-type protein (Homo sapiens, UniProt P01111); experiment: Binding to NRAS by surface plasmon resonance (SPR), KD and KD ratio to KRAS; conditions: ratio of the KD value with respect to GDP-bound NRAS wild-type protein to the KD value with respect to KRAS
Sequence of GDP-bound NRAS wild-type protein (P01111 whole entry): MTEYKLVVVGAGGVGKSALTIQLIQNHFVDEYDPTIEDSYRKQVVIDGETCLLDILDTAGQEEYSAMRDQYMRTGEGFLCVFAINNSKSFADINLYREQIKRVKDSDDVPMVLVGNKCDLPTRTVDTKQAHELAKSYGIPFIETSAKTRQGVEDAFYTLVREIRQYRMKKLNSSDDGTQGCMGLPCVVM
Method in brief: as §1

Row | SMILES | IC50 [1] | HRAS /KRAS [2] | NRAS /KRAS [3]
1 | CCCN1C(=O)[C@@H]2CCN2C(=O)CN(C)C(=O)[C@H]([C@@H](C)CC)NC(=O)[C@H](CC(C)C)N(C)C(=O)C[C@@H](C(=O)N(C)C)N(C)C(=O)[C@H](C2CCCC2)N(C)C(=O)C2(CCCC2)NC(=O)[C@@H]2CC(F)(F)CN2C(=O)[C@H](CCc2ccc(C(F)(F)F)c(Cl)c2)NC(=O)CN(C)C(=O)[C@@H]1Cc1ccc(C(F)(F)F)cc1 [PP0442] ([NMeL]I[Sar][Aze][NPrPhe(4-CF3)][Sar][hPhe(3-Cl-4-CF3)][Pro(4,4-F2)][Ac5c][NMeGly(cPent)][NMeD]-NMe2; lactam N-11) | 0.8 nM | C (A compound having a KD ratio of 0.1 or more and less than 3 is denoted as C) | C (A compound having a KD ratio of 0.1 or more and less than 3 is denoted as C)
2 | CCCN1C(=O)[C@@H]2CCN2C(=O)CN(C)C(=O)[C@H]([C@@H](C)CC)NC(=O)[C@H](CC(C)C)N(C)C(=O)C[C@@H](C(=O)N(C)C)N(C)C(=O)[C@H](C2CCCC2)N(C)C(=O)C2(CCC2)NC(=O)[C@@H]2CC(F)(F)CN2C(=O)[C@H](CCc2ccc(C(F)(F)F)c(Cl)c2)NC(=O)CN(C)C(=O)[C@@H]1Cc1ccc(C(F)(F)F)cc1 [PP0443] ([NMeL]I[Sar][Aze][NPrPhe(4-CF3)][Sar][hPhe(3-Cl-4-CF3)][Pro(4,4-F2)][Ac4c][NMeGly(cPent)][NMeD]-NMe2; lactam N-11) | 0.9 nM | C (A compound having a KD ratio of 0.1 or more and less than 3 is denoted as C) | C (A compound having a KD ratio of 0.1 or more and less than 3 is denoted as C)
3 | CCCN1C(=O)[C@@H]2CCN2C(=O)CN(C)C(=O)[C@H]([C@@H](C)CC)NC(=O)[C@H](CC(C)C)N(C)C(=O)C[C@@H](C(=O)N(C)C)N(C)C(=O)[C@H](C2CCCC2)N(C)C(=O)C2(CCCC2)NC(=O)[C@@H]2C[C@@H](OCC)CN2C(=O)[C@H](CCc2ccc(C(F)(F)F)c(Cl)c2)NC(=O)CN(C)C(=O)[C@@H]1Cc1ccc(C(F)(F)F)cc1 [PP0444] ([NMeL]I[Sar][Aze][NPrPhe(4-CF3)][Sar][hPhe(3-Cl-4-CF3)][Hyp](Et)[Ac5c][NMeGly(cPent)][NMeD]-NMe2; lactam N-11) | 1.4 nM | C (A compound having a KD ratio of 0.1 or more and less than 3 is denoted as C) | C (A compound having a KD ratio of 0.1 or more and less than 3 is denoted as C)
4 | CCCN1C(=O)[C@@H]2CCN2C(=O)CN(C)C(=O)[C@H]([C@@H](C)CC)NC(=O)[C@H](CC(C)C)N(C)C(=O)C[C@@H](C(=O)N(C)C)N(C)C(=O)[C@H](C2CCCC2)N(C)C(=O)C2(CCC2)NC(=O)[C@@H]2C[C@@H](OCC)CN2C(=O)[C@H](CCc2ccc(C(F)(F)F)c(Cl)c2)NC(=O)CN(C)C(=O)[C@@H]1Cc1ccc(C(F)(F)F)cc1 [PP0445] ([NMeL]I[Sar][Aze][NPrPhe(4-CF3)][Sar][hPhe(3-Cl-4-CF3)][Hyp](Et)[Ac4c][NMeGly(cPent)][NMeD]-NMe2; lactam N-11) | 1.7 nM | C (A compound having a KD ratio of 0.1 or more and less than 3 is denoted as C) | C (A compound having a KD ratio of 0.1 or more and less than 3 is denoted as C)
5 | CCCN1C(=O)CN(C)C(=O)CN(C)C(=O)[C@H]([C@@H](C)CC)NC(=O)[C@H](CC(C)C)N(C)C(=O)C[C@@H](C(=O)N2CCOCC2)N(C)C(=O)[C@H](C2CCCC2)N(C)C(=O)C2(CCCC2)NC(=O)[C@@H]2CC(C)(C)CN2C(=O)[C@H](CCc2ccc(C(F)(F)F)c(Cl)c2)NC(=O)CN(C)C(=O)[C@@H]1Cc1ccc(C(F)(F)F)cc1 [PP0446] ([NMeL]I[Sar][Sar][NPrPhe(4-CF3)][Sar][hPhe(3-Cl-4-CF3)][Pro(4,4-Me2)][Ac5c][NMeGly(cPent)][NMeD]-Morpholide; lactam N-11) | 1.6 nM | C (A compound having a KD ratio of 0.1 or more and less than 3 is denoted as C) | B (a compound having 3 or more and less than 10 is denoted as B)
6 | CCCN1C(=O)CN(C)C(=O)CN(C)C(=O)[C@H]([C@@H](C)CC)NC(=O)[C@H](CC(C)C)N(C)C(=O)C[C@@H](C(=O)N2CCOCC2)N(C)C(=O)[C@H](C2CCCC2)N(C)C(=O)C2(CCCC2)NC(=O)[C@@H]2C[C@H](C)CN2C(=O)[C@H](CCc2ccc(C(F)(F)F)c(Cl)c2)NC(=O)CN(C)C(=O)[C@@H]1Cc1ccc(C(F)(F)F)cc1 [PP0447] ([NMeL]I[Sar][Sar][NPrPhe(4-CF3)][Sar][hPhe(3-Cl-4-CF3)][Pro(4S-Me)][Ac5c][NMeGly(cPent)][NMeD]-Morpholide; lactam N-11) | 3.9 nM | C (A compound having a KD ratio of 0.1 or more and less than 3 is denoted as C) | B (a compound having 3 or more and less than 10 is denoted as B)
7 | CCCN1C(=O)CN(C)C(=O)CNC(=O)[C@H]([C@@H](C)CC)NC(=O)[C@H](CC(C)C)N(C)C(=O)C[C@@H](C(=O)N2CCOCC2)N(C)C(=O)[C@H](C2CCCC2)N(C)C(=O)C2(CCCC2)NC(=O)[C@@H]2CC(C)(C)CN2C(=O)[C@H](CCc2ccc(C(F)(F)F)c(Cl)c2)NC(=O)CN(C)C(=O)[C@@H]1Cc1ccc(C(F)(F)F)cc1 [PP0448] ([NMeL]IG[Sar][NPrPhe(4-CF3)][Sar][hPhe(3-Cl-4-CF3)][Pro(4,4-Me2)][Ac5c][NMeGly(cPent)][NMeD]-Morpholide; lactam N-11) | 2 nM | C (A compound having a KD ratio of 0.1 or more and less than 3 is denoted as C) | B (a compound having 3 or more and less than 10 is denoted as B)
8 | CCCN1C(=O)CN(C)C(=O)CNC(=O)[C@H]([C@@H](C)CC)NC(=O)[C@H](CC(C)C)N(C)C(=O)C[C@@H](C(=O)N2CCOCC2)N(C)C(=O)[C@H](C2CCCC2)N(C)C(=O)C2(CCCC2)NC(=O)[C@@H]2C[C@H](C)CN2C(=O)[C@H](CCc2ccc(C(F)(F)F)c(Cl)c2)NC(=O)CN(C)C(=O)[C@@H]1Cc1ccc(C(F)(F)F)cc1 [PP0449] ([NMeL]IG[Sar][NPrPhe(4-CF3)][Sar][hPhe(3-Cl-4-CF3)][Pro(4S-Me)][Ac5c][NMeGly(cPent)][NMeD]-Morpholide; lactam N-11) | 9.2 nM | C (A compound having a KD ratio of 0.1 or more and less than 3 is denoted as C) | C (A compound having a KD ratio of 0.1 or more and less than 3 is denoted as C)
9 | CCCN1C(=O)CN(C)C(=O)CN(CC)C(=O)[C@H]([C@@H](C)CC)NC(=O)[C@H](CC(C)C)N(C)C(=O)C[C@@H](C(=O)N2CCOCC2)N(C)C(=O)[C@H](C2CCCC2)N(C)C(=O)C2(CCCC2)NC(=O)[C@@H]2CC(C)(C)CN2C(=O)[C@H](CCc2ccc(C(F)(F)F)c(Cl)c2)NC(=O)CN(C)C(=O)[C@@H]1Cc1ccc(C(F)(F)F)cc1 [PP0450] ([NMeL]I[NEtG][Sar][NPrPhe(4-CF3)][Sar][hPhe(3-Cl-4-CF3)][Pro(4,4-Me2)][Ac5c][NMeGly(cPent)][NMeD]-Morpholide; lactam N-11) | 8.4 nM | C (A compound having a KD ratio of 0.1 or more and less than 3 is denoted as C) | B (a compound having 3 or more and less than 10 is denoted as B)
10 | CCCN1C(=O)[C@@H]2CCN2C(=O)[C@H](C)N(C)C(=O)[C@H]([C@@H](C)CC)NC(=O)[C@H](CC(C)C)N(C)C(=O)C[C@@H](C(=O)N2CCOCC2)N(C)C(=O)[C@H](C2CCCC2)N(C)C(=O)C2(CCCC2)NC(=O)[C@@H]2CC(C)(C)CN2C(=O)[C@H](CCc2ccc(C(F)(F)F)c(Cl)c2)NC(=O)CN(C)C(=O)[C@@H]1Cc1ccc(C(F)(F)F)cc1 [PP0454] ([NMeL]I[NMeA][Aze][NPrPhe(4-CF3)][Sar][hPhe(3-Cl-4-CF3)][Pro(4,4-Me2)][Ac5c][NMeGly(cPent)][NMeD]-Morpholide; lactam N-11) | 2.9 nM | C (A compound having a KD ratio of 0.1 or more and less than 3 is denoted as C) | C (A compound having a KD ratio of 0.1 or more and less than 3 is denoted as C)
11 | CCCN1C(=O)[C@@H]2CCN2C(=O)CN(C)C(=O)[C@H]([C@@H](C)CC)NC(=O)[C@H](CC(C)C)N(C)C(=O)C[C@@H](C(=O)N2CCOCC2)N(C)C(=O)[C@H](C2CCCC2)N(C)C(=O)C2(CCCC2)NC(=O)[C@@H]2CC(C)(C)CN2C(=O)[C@H](CCc2ccc(C(F)(F)F)c(Cl)c2)NC(=O)CN(C)C(=O)[C@@H]1Cc1ccc(C(F)(F)F)cc1 [PP0456] ([NMeL]I[Sar][Aze][NPrPhe(4-CF3)][Sar][hPhe(3-Cl-4-CF3)][Pro(4,4-Me2)][Ac5c][NMeGly(cPent)][NMeD]-Morpholide; lactam N-11) | 7 nM | C (A compound having a KD ratio of 0.1 or more and less than 3 is denoted as C) | C (A compound having a KD ratio of 0.1 or more and less than 3 is denoted as C)
12 | CCCN1C(=O)[C@@H]2CCN2C(=O)CN(C)C(=O)[C@H]([C@@H](C)CC)NC(=O)[C@H](CC(C)C)N(C)C(=O)C[C@@H](C(=O)N2CCOCC2)N(C)C(=O)[C@H](C2CCCC2)N(C)C(=O)C2(CCCC2)NC(=O)[C@@H]2C[C@H](C)CN2C(=O)[C@H](CCc2ccc(C(F)(F)F)c(Cl)c2)NC(=O)CN(C)C(=O)[C@@H]1Cc1ccc(C(F)(F)F)cc1 [PP0457] ([NMeL]I[Sar][Aze][NPrPhe(4-CF3)][Sar][hPhe(3-Cl-4-CF3)][Pro(4S-Me)][Ac5c][NMeGly(cPent)][NMeD]-Morpholide; lactam N-11) | 12.1 nM | B (a compound having 3 or more and less than 10 is denoted as B) | C (A compound having a KD ratio of 0.1 or more and less than 3 is denoted as C)
